Drawing on ChEMBL document CHEMBL3217637, “Temocene: the porphycene analogue of temoporfin (Foscan)” (Medchemcomm, 2011), this text covers Stability, Activity and Drug uptake for two compounds.

Series [1] in a line: Photostability of the compound in aerated acetone under irradiation at 532 nm laser pulses. It counts as physicochemical. Details: dose or concentration left out as unconfirmed.
Series [2] concerns HeLa. The experiment in a line: Cytotoxicity against human HeLa cells assessed as decrease in cell viability under dark condition after 18 hrs by MTT assay. It counts as cell-based.
Series [3] in a line: Cellular uptake in mitochondria of human HeLa cells under prolonged irradiation at 365 nm up to 10 uM after 18 hrs by mitotracker green staining-based fluorescence microscopic analysis. It counts as ADME.
The subject of series [4] is HeLa. Nature of the series: Phototoxicity against human HeLa cells assessed as decrease in cell viability at < 5 uM preincubated for 18 hrs followed by > 3.5 J/cm'2 of photoirradiation measured after 24 hrs by MTT assay. It counts as functional, cell-based.
Series [5] is described as follows: Cellular uptake in mitochondria of human HeLa cells under ultraviolet irradiation at 365 nm at 1 to 10 uM after 18 hrs by mitotracker green staining-based fluorescence microscopic analysis. It counts as ADME.
Series [6] deals with HeLa. The experiment in a line: Phototoxicity against human HeLa cells assessed as decrease in cell viability at > 5 uM preincubated for 18 hrs followed by 3.5 J/cm'2 of photoirradiation measured after 24 hrs by MTT assay. It counts as functional, cell-based.
A short description of series [7]: Cellular uptake in cytoplasm of human HeLa cells under ultraviolet irradiation at 365 nm at 1 to 10 uM after 18 hrs by mitotracker green staining-based fluorescence microscopic analysis. It counts as ADME, cell-based.
Series [8] relates to HeLa. The experiment in a line: Cellular uptake in human HeLa cells under ultraviolet irradiation at 365 nm at 0.5 uM after 18 hrs by mitotracker green staining-based fluorescence microscopic analysis. It counts as ADME, cell-based.
A short description of series [9]: Cellular uptake in cytoplasm of human HeLa cells under prolonged irradiation at 365 nm up to 10 uM after 18 hrs by mitotracker green staining-based fluorescence microscopic analysis. It counts as ADME, cell-based.

The structures appear in SMILES notation. The source made the active and inactive calls. No cut-off for these calls is given here.

On to `Oc1cccc(-c2c3nc(c(-c4cccc(O)c4)c4ccc([nH]4)c(-c4cccc(O)c4)c4nc(c(-c5cccc(O)c5)c5ccc2[nH]5)CC4)C=C3)c1` [TEMOPORFIN], for which the Stability result in series [1] is “Stable”. Further, the Activity entry in the series with HeLa [2] was “Toxic”.

For `Oc1cccc(C2=Cc3nc2ccc2[nH]c(cc2-c2cccc(O)c2)c2nc(ccc4[nH]c3cc4-c3cccc(O)c3)C(c3cccc(O)c3)=C2)c1`, the Drug uptake result in series [3] is given as “Active”; in [5] it was “Active”; in series [7] it was “Active”; with HeLa [8], “Not Active”; in series [9] it was “Active”. The result in the series on HeLa [4] and with HeLa [6] was Active. For the same compound, the Stability entry in [1] is on record as “Stable”. Moreover, in the series with HeLa [2], the Activity result is reported as “Non-toxic”.
